The source of these data is patent EP0403957A2, “Optical active 1,4-dihydropyridine derivates” (FUJIREBIO INC., priority 1989, dated 1990).

Like-named read-outs stand apart in the source and are kept apart here.

Experiment [1] has as its system spontaneously hypertensive rats (aparalytic SHR; male). Kind of experiment: Test for hypotensive activity. The conditions noted are these: for HR / T 1/2 / Peak: 300 µg/kg into the abdominal aorta of SHR; for MaxΔMBP: 300 µg/kg into the abdominal aorta of SHR through a canula, blood pressure by pressure transducer; for T 1/2: half time of the hypotensive effect; for Peak: time of peak of the hypotensive effect. The format is in vivo. The protocol:
The test was carried out by employing spontaneously hypertensive rats (aparalytic SHR; male) according to Nakao et al method.
300 µg/kg of the compound to be tested was administrated into the abdominal aorta of SHR through a canula (previously inserted). The blood pressures in the whole body of the rats were measured with a pressure transducer (MPU-0.5, made by Nihon Koden K.K.).

Experiment [2] deals with thoracic aortas of rabbits. Kind of experiment: Test for activity of inhibiting KCl-induced contraction. It is filed as cell-based, rabbits (Japanese white rabbit; male). Particulars: 3x10⁻⁶ M compound; 30 mM KCl; helical strips in Krebs-Henseleit solution at 37°C; determined in 60 minutes. The protocol: Herical strips of thoracic aortas of rabbits (Japanese white rabbit; male) were mounted vertically in organ baths of Krebs-Henselit solution at 37°C for 90 minutes, and then 30 mM of KCl was added to the baths. After 30 minutes, the compound to be tested was added to the baths, and the variations in the tension were recorded by an isometric kymograph, so that the inhibitory activity of the compound was determined in 60 minutes.

Experiment [3] has as its system platelet rich plasma. The experiment in a line: Test for platelet aggregation-inhibiting activity in rabbit platelet rich plasma. The format is cell-based, rabbit (Japanese white; male). The conditions noted are these: Oryctolagus cuniculus, 0.5 h, 30 minutes incubation in PRP. The protocol:
The mixture was centrifuged at 1100 rpm at 20°C for 15 minutes. The upper layer is a platelet rich plasma (RRP), and the lower layer was centrifuged at 2500 rpm at 20°C for 10 minutes, so that a platelet poor plasma (PPP) was obtained.
10 µℓ of a solution of the compound to be tested with a concentration of 10⁻⁴ moℓ/ℓ was added to 200 µℓ of PRP, and the mixture was subjected to incubation for 30 minutes. To the mixture was added 10 µℓ of a platelet activating factor (PAF)(10 µg/mℓ), or arachidonic acid (AA)(1 mM at final concentration). The extent of the aggregation was measured by Agricometer (NKK, PAT-4A).

On to “(-)-3-[4-(-(1-imidazolylmethyl)phenyl]-2-propen-1-yl methyl-1, 4-dihydro-2,6-dimethyl-4-(3-nitrophenyl)pyridine-3,5-dicarboxylate [Example 37]”, for which, in experiment [1], the HR was found to be 3.7 beats/min, the MaxΔMBP stood at 10.8 mmHg, the “T 1/2” value was found to be 0.4 min and the Peak stood at 0.6 min. Further, the “Inhibitory Effect on KCℓ-induced contraction(%)” value in experiment [2] came out at 16.8 ± 9.8%.

Consider `COC(=O)C1=C(C)NC(C)=C(C(=O)OC/C=C/c2ccc(Cn3ccnc3)cc2)C1c1cccc([N+](=O)[O-])c1` (single isomer, unassigned; (+)) [Example 36, (+)-3-[4-(1-imidazolylmethyl)phenyl]-2-propen-1-yl methyl-1,4-dihydro-2,6-dimethyl-4-(3-nitrophenyl)pyridine-3,5-dicarboxylate], for which, in experiment [1], the HR is on record as 49.0 beats/min, the MaxΔMBP was 51.4 mmHg, the “T 1/2” value came to 3.4 min and the Peak is 0.9 min. In addition, in experiment [2], the “Inhibitory Effect on KCℓ-induced contraction(%)” value is 51.1 ± 11.6%. Further, in experiment [3] (aggregation induced by platelet activating factor (PAF) 10 µg/ml, read-out: IC₅₀ (M) PAF(10 µg/ml)), the IC50 was 0.00011 M. The IC50 in experiment [3] (Platelet, aggregation induced by arachidonic acid (AA) 1 mM at final concentration, read-out: IC₅₀ (M) AA(1 mM)) turned out to be 0.00014 M.
